Test results from US20260130901A1, “CGRP RECEPTOR ANTAGONIST FOR THE TREATMENT OF MIGRAINE” (ALLERGAN PHARMACEUTICALS INTERNATIONAL LIMITED, priority 2022, published 2026).

Tested on: participants with migraine (qualifying prodrome events)
Experiment: Phase 3 crossover study: absence of headache after treatment during the prodrome
Assay type: in vivo, human
Procedure: A phase 3, multicenter, randomized, double-blind, placebo-controlled, crossover study was carried out to evaluate the efficacy, safety, and tolerability of oral ubrogepant in the acute treatment of migraine when administered during the prodrome. The study evaluated whether treatment during the initial phase of a migraine attack (i.e., the prodrome or premonitory phase) prior to the onset of headache, can attenuate the severity of the headache phase and reduce disability.
Eligible participants were able to treat two qualifying prodrome events, defined as a migraine attack with prodromal symptoms in which the participant was confident a headache would follow within 1-6 hours.
The primary endpoint was absence of moderate or severe intensity headache within 24 hours post-dose. Secondary endpoints were absence of moderate/severe intensity headache within 48 hours, ability to function normally over 24 hours, and absence of headache of any intensity within 24 hours post-dose.
The trial enrolled adults with 2-8 migraine attacks per month who stated that they could identify migraine attacks with prodromal symptoms reliably followed by headache. Using an e-diary, participants reported qualifying events, defined as a migraine attack with prodromal symptoms in which the participant was confident a headache would follow within 1-6 hours.
Eligible participants were randomized (1:1) to treatment sequences A or B in this crossover study. Participants randomized to Treatment Sequence A received placebo to treat their first qualifying prodrome event and ubrogepant 100 mg to treat their second qualifying prodrome event. For those randomized to Treatment Sequence B, they received the reverse: ubrogepant 100 mg to treat their first qualifying prodrome event and placebo to treat their second qualifying prodrome event.
The primary efficacy endpoint was the absence of a headache of moderate/severe intensity within 24 hours after taking double-blind study intervention during the prodrome. The secondary efficacy endpoints were the absence of a headache of moderate or severe intensity within 48 hours, ability to function normally over 24 hours, and absence of a headache of any intensity within 24 hours after taking double blind study interventions during the prodrome.
The overall study design is illustrated in FIG. 1. […] After meeting eligibility criteria, randomized participants were to treat two qualifying prodrome events with study intervention during the double-blind treatment period (between Visit 2 and Visit 4) (up to 60 days), separated by a clinic visit (visit 3) to ensure a minimum 7-day washout period. A post-treatment visit (visit 4) followed four days after the last treatment was taken.
To be eligible for study participation, participants must be 18 to 75 years of age (inclusive) at Visit 1, have at least a 1-year history of migraine with or without aura consistent with diagnosis according to the ICHD-3 (2018), and experience 2 to 8 migraine attacks with moderate to severe headache per month by history in each of the 3 months prior to screening. At the screening visit, participants were asked whether they could identify prodromal symptoms followed by migraine headache within 1 to 6 hours at least 75% of the time. […] After the screening period, to be eligible for randomization, the participant needed to record 3 to 16 qualifying prodrome events with at least 75% of these events followed by a headache, of any intensity, within 1 to 6 hours.
Participants were excluded if they had difficulty distinguishing migraine from tension-type or other headache types, or if they had chronic migraine, a trigeminal autonomic cephalalgia, or a painful cranial neuropathy. Participants who overused medication for migraine or had previous exposure to an injectable anti-CGRP monoclonal antibody within the previous 3 months were also excluded.
Participant flow is illustrated in FIG. 2. […]

[1] = 100 mg in prodrome, within 1 hour, mITT, observed cases
[2] = 100 mg in prodrome, within 2 hours, mITT, observed cases
[3] = 100 mg in prodrome, within 3 hours, mITT, observed cases
[4] = 100 mg in prodrome, within 4 hours, mITT, observed cases
[5] = 100 mg in prodrome, within 6 hours, mITT, observed cases
[6] = 100 mg in prodrome, within 8 hours, mITT, observed cases
[7] = 100 mg in prodrome, within 24 hours, mITT, observed cases
[8] = 100 mg in prodrome, within 24 hours, mITT, observed cases (primary analysis)
[9] = 100 mg in prodrome, within 24 hours, sensitivity analysis: Period 1 data only
[10] = 100 mg in prodrome, within 24 hours, sensitivity analysis: non-responder imputation
[11] = 100 mg in prodrome, within 24 hours, sensitivity analysis: testing carryover effect
[12] = 100 mg in prodrome, within 48 hours, mITT, observed cases

SMILES: C[C@@H]1[C@H](c2ccccc2)C[C@H](NC(=O)c2cnc3c(c2)C[C@@]2(C3)C(=O)Nc3ncccc32)C(=O)N1CC(F)(F)F [Ubrogepant, (3′S)—N-((3S,5S,6R)-6-methyl-2-oxo-5-phenyl-1-(2,2,2-trifluoroethyl)piperidin-3-yl)-2′-oxo-1′,2′,5,7-tetrahydrospiro[cyclopenta[b]pyridine-6,3′-pyrrolo[2,3-b]pyridine]-3-carboxamide]
- Absence of a headache of any intensity, Nonresponder (%) [1]: (42.9) %
- Absence of a headache of any intensity, Odds Ratio vs. Placebo [1]: 1.19
- Absence of a headache of any intensity, Responder (%) [1]: (57.1) %
- Absence of a headache of moderate/severe intensity, Nonresponder (%) [1]: (22.9) %
- Absence of a headache of moderate/severe intensity, Odds Ratio vs. Placebo [1]: 1.30
- Absence of a headache of moderate/severe intensity, Responder (%) [1]: (77.1) %
- Absence of a headache of severe intensity, Nonresponder (%) [1]: (4.0) %
- Absence of a headache of severe intensity, Odds Ratio vs. Placebo [1]: 1.21
- Absence of a headache of severe intensity, Responder (%) [1]: (96.0) %
- Absence of a headache of any intensity, Nonresponder (%) [2]: (55.7) %
- Absence of a headache of any intensity, Odds Ratio vs. Placebo [2]: 1.34
- Absence of a headache of any intensity, Responder (%) [2]: (44.3) %
- Absence of a headache of moderate/severe intensity, Nonresponder (%) [2]: (35.4) %
- Absence of a headache of moderate/severe intensity, Odds Ratio vs. Placebo [2]: 1.31
- Absence of a headache of moderate/severe intensity, Responder (%) [2]: (64.6) %
- Absence of a headache of severe intensity, Nonresponder (%) [2]: (7.4) %
- Absence of a headache of severe intensity, Odds Ratio vs. Placebo [2]: 1.33
- Absence of a headache of severe intensity, Responder (%) [2]: (92.6) %
- Absence of a headache of any intensity, Nonresponder (%) [3]: (62.5) %
- Absence of a headache of any intensity, Odds Ratio vs. Placebo [3]: 1.60
- Absence of a headache of any intensity, Responder (%) [3]: (37.5) %
- Absence of a headache of moderate/severe intensity, Nonresponder (%) [3]: (39.9) %
- Absence of a headache of moderate/severe intensity, Odds Ratio vs. Placebo [3]: 1.71
- Absence of a headache of moderate/severe intensity, Responder (%) [3]: (60.1) %
- Absence of a headache of severe intensity, Nonresponder (%) [3]: (9.4) %
- Absence of a headache of severe intensity, Odds Ratio vs. Placebo [3]: 1.41
- Absence of a headache of severe intensity, Responder (%) [3]: (90.6) %
- Absence of a headache of any intensity, Nonresponder (%) [4]: (67.3) %
- Absence of a headache of any intensity, Odds Ratio (95% CI) vs. Placebo [4]: 1.76 (1.35, 2.30)
- Absence of a headache of any intensity, Responder (%) [4]: (32.7) %
- Absence of a headache of moderate/severe intensity, Nonresponder (%) [4]: (41.5) %
- Absence of a headache of moderate/severe intensity, Odds Ratio vs. Placebo [4]: 1.91
- Absence of a headache of moderate/severe intensity, Responder (%) [4]: (58.5) %
- Absence of a headache of severe intensity, Nonresponder (%) [4]: (10.5) %
- Absence of a headache of severe intensity, Odds Ratio vs. Placebo [4]: 1.70
- Absence of a headache of severe intensity, Responder (%) [4]: (89.5) %
- Absence of a headache of any intensity, Nonresponder (%) [5]: (71.0) %
- Absence of a headache of any intensity, Odds Ratio vs. Placebo [5]: 1.79
- Absence of a headache of any intensity, Responder (%) [5]: (29.0) %
- Absence of a headache of moderate/severe intensity, Nonresponder (%) [5]: (46.6) %
- Absence of a headache of moderate/severe intensity, Odds Ratio vs. Placebo [5]: 1.86
- Absence of a headache of moderate/severe intensity, Responder (%) [5]: (53.4) %
- Absence of a headache of severe intensity, Nonresponder (%) [5]: (12.5) %
- Absence of a headache of severe intensity, Odds Ratio vs. Placebo [5]: 1.77
- Absence of a headache of severe intensity, Responder (%) [5]: (87.5) %
- Absence of a headache of any intensity, Nonresponder (%) [6]: (72.5) %
- Absence of a headache of any intensity, Odds Ratio vs. Placebo [6]: 1.85
- Absence of a headache of any intensity, Responder (%) [6]: (27.5) %
- Absence of a headache of moderate/severe intensity, Nonresponder (%) [6]: (48.2) %
- Absence of a headache of moderate/severe intensity, Odds Ratio vs. Placebo [6]: 2.01
- Absence of a headache of moderate/severe intensity, Responder (%) [6]: (51.8) %
- Absence of a headache of severe intensity, Nonresponder (%) [6]: (13.1) %
- Absence of a headache of severe intensity, Odds Ratio vs. Placebo [6]: 1.89
- Absence of a headache of severe intensity, Responder (%) [6]: (86.9) %
- Absence of a headache of any intensity, Nonresponder (%) [7]: (76.3) %
- Absence of a headache of any intensity, Odds Ratio vs. Placebo [7]: 1.93
- Absence of a headache of any intensity, Responder (%) [7]: (23.7) %
- Absence of a headache of severe intensity, Nonresponder (%) [7]: (14.5) %
- Absence of a headache of severe intensity, Odds Ratio vs. Placebo [7]: 1.83
- Absence of a headache of severe intensity, Responder (%) [7]: (85.5) %
- Absence of a headache of moderate/severe intensity, Nonresponder (%) [8]: (54.5) %
- Absence of a headache of moderate/severe intensity, Odds Ratio vs. Placebo [8]: 2.09
- Absence of a headache of moderate/severe intensity, Responder (%) [8]: (45.5) %
- Absence of a headache of moderate/severe intensity, Responder (%) (100 mg in prodrome, within 24 hours, mITT, observed cases (primary analysis), listed as ubrogepant): 45.5%
- Absence of a headache of any intensity, Responder (%) (100 mg in prodrome, within 24 hours, mITT, observed cases, listed as ubrogepant): 23.7%
- Absence of a headache of moderate/severe intensity, Nonresponder (%) [9]: (52.6) %
- Absence of a headache of moderate/severe intensity, Odds Ratio vs. Placebo [9]: 2.11
- Absence of a headache of moderate/severe intensity, Responder (%) [9]: (47.4) %
- Absence of a headache of moderate/severe intensity, Nonresponder (%) [10]: (57.6) %
- Absence of a headache of moderate/severe intensity, Odds Ratio vs. Placebo [10]: 2.01
- Absence of a headache of moderate/severe intensity, Responder (%) [10]: (42.4) %
- Absence of a headache of moderate/severe intensity, Nonresponder (%) [11]: (54.5) %
- Absence of a headache of moderate/severe intensity, Odds Ratio vs. Placebo [11]: 2.09
- Absence of a headache of moderate/severe intensity, Responder (%) [11]: (45.5) %
- Absence of a headache of any intensity, Nonresponder (%) [12]: (81.4) %
- Absence of a headache of any intensity, Odds Ratio vs. Placebo [12]: 1.90
- Absence of a headache of any intensity, Responder (%) [12]: (18.6) %
- Absence of a headache of moderate/severe intensity, Nonresponder (%) [12]: (59.3) %
- Absence of a headache of moderate/severe intensity, Odds Ratio vs. Placebo [12]: 2.13
- Absence of a headache of moderate/severe intensity, Responder (%) [12]: (40.7) %
- Absence of a headache of severe intensity, Nonresponder (%) [12]: (17.4) %
- Absence of a headache of severe intensity, Odds Ratio vs. Placebo [12]: 1.71
- Absence of a headache of severe intensity, Responder (%) [12]: (82.6) %
- Absence of a headache of moderate/severe intensity, Responder (%) (100 mg in prodrome, within 48 hours, mITT, observed cases, listed as ubrogepant): 40.7%
- Reducing the development of moderate/severe headache within 24 and 48 hours and of headache of any intensity within 24 hours (administered during the prodrome): superior to placebo
